In ChEMBL document CHEMBL1140642, “Human serum albumin binding assay based on displacement of a non selective fluorescent inhibitor” (Bioorg Med Chem Lett, 2007):

Key:
[1] = biological target: T1, Albumin (Homo sapiens, UniProt P02768); experiment: Displacement of [C13]-methyl oleic acid from ibuprofen site of human serum albumin by NMR
[2] = biological target: T1, Albumin; experiment: Displacement of [C13]-methyl oleic acid from warfarin site of human serum albumin by NMR

T1 sequence (P02768 whole entry): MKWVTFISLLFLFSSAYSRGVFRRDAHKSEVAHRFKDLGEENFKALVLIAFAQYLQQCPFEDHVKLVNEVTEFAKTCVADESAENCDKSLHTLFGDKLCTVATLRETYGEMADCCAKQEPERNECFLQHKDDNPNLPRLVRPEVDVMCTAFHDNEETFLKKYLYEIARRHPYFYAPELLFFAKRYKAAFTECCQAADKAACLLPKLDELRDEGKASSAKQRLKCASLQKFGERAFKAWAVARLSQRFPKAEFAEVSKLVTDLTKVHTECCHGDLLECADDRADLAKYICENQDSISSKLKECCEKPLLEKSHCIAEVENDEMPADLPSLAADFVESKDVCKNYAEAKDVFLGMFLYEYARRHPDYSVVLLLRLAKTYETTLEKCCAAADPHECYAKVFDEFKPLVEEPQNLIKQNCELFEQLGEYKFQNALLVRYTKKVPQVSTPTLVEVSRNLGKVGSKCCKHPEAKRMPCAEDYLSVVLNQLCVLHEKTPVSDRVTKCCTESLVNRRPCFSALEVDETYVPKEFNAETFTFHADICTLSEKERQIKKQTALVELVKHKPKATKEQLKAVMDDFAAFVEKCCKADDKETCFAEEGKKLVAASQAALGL

Activity [1]: Active
Activity [2]: Active
SMILES: Cn1c(/C=C/c2ccc(C#N)cc2C(=O)O)cc2ccccc21
